# According to US8785388B2, “TAT-BH3 methods for treating arthritis” (Saint Louis University, priority 2007, dated 2014):
# Square brackets hold non-standard residues; d marks the D form. Peptide text beside a SMILES is read from it. Orn = NCCC[C@H](N)C(=O)O
# Experiments:
# [1] = system: cells that express high levels of Mcl-1; conditions: literature statement; cited from earlier work
# [2] = system: platelets; conditions: literature statement; cited from earlier work
# [3] = system: K/B×N serum transfer-induced arthritis; assay: K/B×N serum transfer-induced arthritis, ankle circumference (joint swelling); assay type: in vivo, mice
# Description: The seven-week-old progeny from homozygous KRN TCR transgenic mice (C57BL/6 background) crossed with non-obese diabetes (NOD) mice (K/B×N) were euthanized, peripheral blood was isolated, and serum were collected and pooled. One hundred and fifty microliters of K/B×N serum were intraperitoneally injected on each flank of 6-week old wt mice.
# (§1) At each time point and prior to euthanasia, the degree of arthritis as indicated by joint swelling was quantitated by measuring two perpendicular diameters of the ankles using a caliper (Lange Caliper: Cambridge Scientific Industries, Cambridge Mass.). Joint circumference was calculated using the geometric formula of ellipse circumference (2πX √(a^2+b^2)/2). Following euthanasia, serum was isolated from peripheral blood by cardiac stick and ankle joints were removed. One of the ankle joints was fixed in 10% neutral buffered formalin for 24 hours, decalcified in EDTA-decalcification buffer for two weeks, embedded in paraffin, and sectioned. The other ankle joint was placed in liquid nitrogen, grounded into a fine powder by mortal and pestle, digested in protein lysis buffer ([…], 0.5% NP-40, 50 mM Tris, and 2 mM EDTA) in the presence of phosphatase and protease inhibitors, and homogenized on ice for 20 seconds. To examine any toxicity due to systemic delivery of TAT-Bim peptides, alkaline phosphatase (ALP), […] (AST), alanine aminotransferase (ALT), and blood urea nitrogen levels were measured.
# Therefore, peptides to the BH3 domain of Bim were used that are fused to polycationic peptide derived from HIV-1 TAT. These peptides have shown to activate Bak and Bax, suppress Bcl-2 and Mcl-1, induce mitochondrial permeability, and release mitochondrial cytochrome c. Mice were intraperitoneally injected with K/B×N serum to induce the effector phase of inflammatory arthritis.
# [4] = system: K/B×N serum transfer-induced arthritis; assay: Histopathological scoring of ankle sections (H&E, safranin O/methyl green); assay type: in vivo, mice; conditions: saline vs TAT-inactive BH3
# Method: (§2) Paraffin embedded ankle or liver sections were stained with hematoxylin and eosin (H&E), Safranin O and methyl green. Histopathological scoring was performed and ankle sections were evaluated by examining at least 3 sections/ankle and 3 fields/section at 400× magnification. H&E ankle sections were scored on a 0-5 scale for inflammation, with 0=normal, 1=minimal infiltration, 2=mild infiltration, 3=moderate infiltration, […], mad 5=severe infiltration. Bone erosion was scored on a 0-5 scale by viewing H&E ankle sections, with 0=no or normal bone resorption, 1=small areas of resorption, 2=more numerous areas of resorption, 3=obvious resorption, 4=full thickness defects in the bone without distortion of the profile, 5=full thickness defects in the bone with distortion of the profile. H&E ankle stained sections were scored on a 0-5 scale for pannus formation, with 0=no pannus formation, 1=minimal pannus formation, 2=mild pannus formation, 3=moderate pannus formation, 4=marked pannus formation, and 5=severe pannus formation. H&E and Safranin 0 and methyl green sections were scored on a 0-5 scale for cartilage damage, with 0=no damage, 1-2=superficial cartilage destruction, 3-4=cartilage destruction to middle zone, 5=cartilage destruction to tide mark. Polymorphonuclear (PMN) leukocyte infiltration: 0=no PMNs, 1=rare scattered PMNs, 2=more frequent scattered PMNs, 3=small clusters of PMNs, 4=larger clusters of PMNs, mad 5=sheets of PMNs (abscess). Histopathological scoring was conducted on an Olympus BX40 microscope (1000×). Photographs were taken on a Nikon microscope equipped with the Nikon digital camera DMX 1200.
# To accurately assess the degree of inflammation and destruction of cartilage and bone, ankle sections were examined using a histopathological scoring system on hematoxylin and eosin (H& E) or safranin O-methyl green stained ankle sections.
# [5] = system: IL-1β, TNFα, MCP-1, KC, MMP-3; assay: ELISA of pro-inflammatory molecules in ankle extracts; assay type: in vivo, mouse; parameters: IL-1β / TNFα / MCP-1 / KC / MMP-3: unit not given here; conditions: ankle joints, seven days post-serum transfer; mean ± standard error
# Method: as §1
# For detection of mouse IL-1β, TNFα, MCP-1, KC, or MMP-3 in ankle extracts, sandwich ELISAs were performed according to the manufacturer's instructions (R & D Systems, Minneapolis, Minn.). The sensitivity for all cytokines was 15.6 pg/mL for IL-1β and KC, 7.813 pg/mL for TNFα and MCP-1, and 0.312 ng/mL for MMP3. ELISAs were quantitated by absorbance at 450 nm on a microplate reader (BioRad, Hercules, Calif.). Data obtained using ELISA on ankle extracts were normalized by the total protein concentration (μg/μL) for each individual ankle extract.
# Mice were euthanized at seven days post-serum transfer. Ankle joints from each mouse were isolated, snap frozen, grounded into a fine powder, lysed, and examined for IL-1β, TNFα, MCP-1, KC, and MMP-3 production using an ELISA. Data are shown as μg/μL per joint. Values represent the mean±standard error, which were compared by Student's t-test.
# [6] = system: IL-1β, TNFα, MCP-1, KC; assay: Circulating cytokine levels in serum; assay type: in vivo, mice; conditions: between saline, TAT-inactive BH3 and TAT-BH3 groups
# Method: as §1
# TAT-BH3 peptides treatment reduces the numbers of myeloid cells in arthritic joints. […] To this end, the numbers of polymorphonuclear cell and macrophages in saline and BH3 peptide arthritic mice were quantified. […]
# [7] = Toxicity: serum ALP, AST, ALT, blood urea nitrogen and liver histology in arthritic mice; assay type: in vivo; conditions: liver sections of arthritic mice
# Method: as §1, §2
# [8] = system: peripheral blood cells; assay: Peripheral blood cell counts (flow cytometry, hematology analyzer); assay type: in vivo, mice; conditions: peripheral blood, mean ± standard error
# Method: Peripheral blood and bone marrow were isolated from mice following euthanasia. Total leukocyte numbers were determined using an automated hematology analyzer ABX Pentra 60 (Diamond Diagnostics, Inc, Holliston, Mass.). The red blood cells in peripheral blood were lysed and the remaining cells were fixed with BD FACS lysing solution (BD Biosciences, Pharmingen) following incubation with antibodies. Bone marrow cells were isolated by flushing Dulbecco's Modified Eagle Medium (DMEM) (Gibco, Grand Island, N.Y.) through the tibias and red blood cells were lysed with BD PharM Lyse (BD Biosciences, Pharmingen) prior to incubation with antibodies. Cells with incubated with Fc Block (BD Biosciences, Pharmingen) then stained with fluorochrome conjugated antibodies to CD45, CD11b, Gr-1, CD62L, Ly-6C, Ly-6G, CD31 (BD Biosciences, Pharmingen) or isotype control antibodies for 30 minutes. Cells were acquired on a BD LSRII (BD Biosciences, Pharmingen) using Diva Software at the Saint Louis University Core Flow Cytometry Facility. All analysis was performed using FlowJo software (Tree Star Inc.).
# Peripheral blood was isolated by cardiac sticks. Cells were blocked for 10 minutes with Fc block and then stained with anti-CD45, anti-CD19, anti-CD3, anti-CD4, anti-CDS, anti-CD11b, anti-Gr-1, and anti-CD62L antibodies for 30 minutes. Platelets and RBCs were determined on an automated hematology analyzer ABX Pentra 60. Following incubation with antibodies red blood cells were lysed and cells were fixed with Becton Dickenson FACS lysing solution.
smiles,measurement,setting,value
CN(C)CC[C@H](CSc1ccccc1)Nc1ccc(S(=O)(=O)NC(=O)c2ccc(N3CCN(Cc4ccccc4-c4ccc(Cl)cc4)CC3)cc2)cc1[N+](=O)[O-] [ABT-737],effect on cells that express high levels of Mcl-1,[1],no effect
same,effect on platelet numbers,[2],dramatic effect
CC[C@H](C)[C@H](NC(=O)[C@H](CCCNC(=N)N)NC(=O)[C@H](CCCNC(=N)N)NC(=O)[C@H](C)NC(=O)[C@H](CCC(=O)O)NC(=O)[C@H](CCC(N)=O)NC(=O)[C@H](C)NC(=O)[C@@H](NC(=O)[C@H](Cc1c[nH]c2ccccc12)NC(=O)[C@@H](NC(=O)[C@H](CCC(=O)O)NC(=O)[C@H](CCCNC(=N)N)NC(=O)[C@H](CCCNC(=N)N)NC(=O)[C@H](CCCNC(=N)N)NC(=O)[C@H](CCCN)NC(=O)[C@H](CCCNC(=N)N)NC(=O)[C@H](CCCNC(=N)N)NC(=O)[C@H](CCCCN)NC(=O)[C@H](CCCCN)NC(=O)[C@H](CCCNC(=N)N)NC(C)=O)[C@@H](C)CC)[C@@H](C)CC)C(=O)NCC(=O)N[C@@H](C)C(=O)N[C@@H](CCC(=O)O)C(=O)N[C@@H](Cc1ccccc1)C(=O)N[C@@H](CC(N)=O)C(=O)N[C@@H](C)C(=O)N[C@@H](Cc1ccc(O)cc1)C(=O)N[C@@H](Cc1ccc(O)cc1)C(=O)N[C@@H](C)C(=O)N[C@@H](CCCNC(=N)N)C(=O)O [reference compound] (Ac-RKKRR[Orn]RRREIWIAQEARRIGAEFNAYYAR-OH),change in ankle circumference,"[3]; day 2 after K/B×N serum, 2 mg/kg i.p.",1.6 mm
same,difference in arthritis (ankle circumference) versus saline,[3]; saline vs TAT-inactive BH3,no statistical difference
same,difference in histological scores versus saline,[4],no statistical difference
same,IL-1β,[5],824 ± 103
same,KC,[5],428 ± 45
same,MCP-1,[5],196 ± 17
same,MMP-3,[5],17 ± 4
same,TNFα,[5],4.4 ± 0.3
same,"circulating levels of IL-1β, TNFα, MCP-1, and KC in serum",[6],no differences
same,liver histology,[7],no gross histologic abnormalities
same,Platelets,[8]; hematology analyzer,1305.75 ± 70.03 (1E6)
same,RBCs,[8]; hematology analyzer,9.84 ± 0.22 (1E6)
same,B-cells+,[8],2.38 ± 0.21 (1E6)
same,CD4+ T-cells,[8],1.15 ± 0.10 (1E6)
same,CD8+ T-cells,[8],0.72 ± 0.06 (1E6)
same,Inflammatory monocytes,[8],0.25 ± 0.03 (1E6)
same,N-K-cells,[8],0.19 ± 0.13 (1E6)
same,Resident Monocytes,[8],0.14 ± 0.01 (1E6)
same,T-cells,[8],1.94 ± 0.17 (1E6)
same,Total Leukocytes,[8],6.1 ± 0.18 (1E6)
